molecular target: hormone sensitive lipase, HSL (Rattus norvegicus (Rat), UniProt P15304); experiment: HSL inhibition assay; type: biochemical; details: partially purified HSL from rat fat cells; [3H]trioleoylglycerol substrate
Method: 1.1. Preparation of the Partially Purified HSL:
Isolated rat fat cells are obtained from epididymal adipose tissue from untreated male rats (Wistar, 220-250 g) by collagenase treatment in accordance with published methods (e.g. S, Nilsson et al., Anal. Biochem. 158, 1986, 399-407; G. Fredrikson et al., J. Biol. Chem. 256, 1981, 6311-6320; H. Tornquist et al., J. Biol. Chem. 251, 1976, 813-819). The fat cells from 10 rats are washed three times by flotation with 50 ml of homogenization buffer ([…] Tris/HCl, pH 7.4, 0.25 M sucrose, 1 mM ETDA, 1 mM DTT, 10 μg/ml leupeptin, 10 μg/ml antipain, 20 μg/ml pepstatin) each time and finally taken up in 10 ml of homogenization buffer. The fat cells are homogenized in a Teflon-in-glass homogenizer (Braun-Melsungen) by 10 strokes at 1500 rpm and 15° C. The homogenate is centrifuged (Sorvall SM24 tubes, 5000 rpm, 10 min, 4° C.). The subnatant between the layer of fat at the top and the pellet is removed and the centrifugation is repeated. The subnatant resulting therefrom is centrifuged again (Sorvall SM24 tubes, 20 000 rpm, 45 min, 4° C.). The subnatant is removed, and 1 g of heparin-Sepharose (Pharmacia-Biotech, CL-6B, washed 5× with 25 mM Tris/HCl, pH 7.4, 150 mM NaCl) is added. After incubation at 4° C. for 60 min (shaking at intervals of 15 min), the mixture is centrifuged (Sorvall SM24 tubes, 3000 rpm, 10 min, 4° C.). The supernatant is adjusted to pH 5.2 by adding glacial acetic acid and is incubated at 4° C. for 30 min. The precipitates are collected by centrifugation (Sorvall SS34, 12 000 rpm, 10 min, 4° C.) and suspended in 2.5 ml of 20 mM Tris/HCl, pH 7.0, 1 mM EDTA, 65 mM NaCl, 13% sucrose, 1 mM DTT, 10 μg/ml leupeptin/pepstatin/antipain. The suspension is dialyzed against 25 mM Tris/HCl, pH 7.4, 50% glycerol, 1 mM DTT, 10 μg/ml leupeptin, pepstatin, antipain at 4° C. overnight and then loaded onto a hydroxyapatite column (0.1 g per 1 ml of suspension, equilibrated with 10 mM potassium phosphate, pH 7.0, 30% glycerol, 1 mM DTT). The column is washed with four volumes of equilibration buffer at a flow rate of 20 to 30 ml/h. The HSL is eluted with one volume of equilibration buffer containing 0.5 M potassium phosphate and then dialyzed (see above) and concentrated 5- to 10-fold by ultrafiltration (Amicon Diaflo PM 10 Filter) at 4° C. The partially purified HSL can be stored at −70° C. for 4 to 6 weeks.
To prepare the substrate, 25-50 μCi of [3H]trioleoylglycerol (in toluene), 6.8 μmol of unlabeled trioleoylglycerol and 0.6 mg of phospholipids (phosphatidylcholine/phosphatidylinositol 3:1 w/v) are mixed, dried with N2 and then taken up in 2 ml of 0.1 M KPi (pH 7.0) by ultrasound treatment (Branson 250, microtip, setting 1-2, 2×1 min with an interval of 1 min). After addition of 1 ml of KPi and renewed ultrasound treatment (4×30 sec on ice with intervals of 30 sec), 1 ml of 20% BSA (in KPi) is added (final concentration of trioleoylglycerol 1.7 mM). For the reaction, 100 μl of substrate solution are pipetted into 100 μl of HSL solution (HSL prepared as above, diluted in 20 mM KPi, pH 7.0, 1 mM EDTA, 1 mM DTT, 0.02% BSA, 20 μg/ml pepstatin, 10 μg/ml leupeptin) and incubated at 37° C. for 30 min. Addition of 3.25 ml of methanol/chloroform/heptane (10:9:7) and of 1.05 ml of 0.1 M K2CO3, 0.1 M boric acid (pH 10.5) is followed by thorough mixing and finally centrifugation (800×g, 20 min). After phase separation, one equivalent of the upper phase (1 ml) is removed and the radioactivity is determined by liquid scintillation measurement.
1.3 Evaluation of the HSL-Inhibitory Effect:
Substances are normally tested in four independent mixtures. The inhibition of the HSL enzymatic activity by a test substance is determined by comparing with an uninhibited control reaction. The IC50 is calculated from an inhibition plot with at least 10 concentrations of the test substance. The GRAPHIT, Elsevier-BIOSOFT software package is used to analyze the data.

Chain of hormone sensitive lipase, HSL (P15304 301-1068, change not shown): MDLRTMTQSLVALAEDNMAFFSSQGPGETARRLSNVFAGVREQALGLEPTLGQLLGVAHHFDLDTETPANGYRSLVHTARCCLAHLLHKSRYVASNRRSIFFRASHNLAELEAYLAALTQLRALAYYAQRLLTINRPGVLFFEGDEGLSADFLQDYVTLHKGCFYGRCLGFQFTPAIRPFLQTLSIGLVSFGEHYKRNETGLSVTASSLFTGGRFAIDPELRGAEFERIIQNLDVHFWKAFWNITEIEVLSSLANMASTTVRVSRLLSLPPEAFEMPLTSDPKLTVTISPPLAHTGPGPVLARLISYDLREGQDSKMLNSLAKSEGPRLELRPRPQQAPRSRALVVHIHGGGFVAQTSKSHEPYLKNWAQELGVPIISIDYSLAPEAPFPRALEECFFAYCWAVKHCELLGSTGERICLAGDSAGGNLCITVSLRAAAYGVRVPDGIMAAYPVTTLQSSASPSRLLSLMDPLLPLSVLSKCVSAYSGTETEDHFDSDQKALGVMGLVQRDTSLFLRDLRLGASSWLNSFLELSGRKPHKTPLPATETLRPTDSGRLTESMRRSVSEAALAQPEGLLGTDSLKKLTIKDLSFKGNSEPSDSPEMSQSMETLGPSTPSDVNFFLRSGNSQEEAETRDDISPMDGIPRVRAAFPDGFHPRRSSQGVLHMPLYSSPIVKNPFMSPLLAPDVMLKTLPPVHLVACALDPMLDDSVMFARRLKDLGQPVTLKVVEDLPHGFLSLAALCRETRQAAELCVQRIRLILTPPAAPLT

IC50 | SMILES
0.12 µM | CC1CCN(C(=O)Oc2noc3cc(Cl)ccc23)CC1 [Example 1, 6-Chlorobenzo[d]isoxazol-3-yl 4-methylpiperidine-1-carboxylate]
0.12 µM | CC1CCN(C(=O)Oc2noc3ncccc23)CC1 [Example 2, Isoxazolo[5,4-b]pyridin-3-yl 4-methylpiperidine-1-carboxylate]
0.1 µM | O=C(Oc1noc2cc(Cl)ccc12)N1CCC(C(F)(F)F)CC1 [Example 3, 6-Chlorobenzo[d]isoxazol-3-yl 4-trifluoromethylpiperidine-1-carboxylate]
0.1 µM | CC1CCN(C(=O)Oc2nsc3ncccc23)CC1 [Example 4, Isothiazolo[5,4-b]pyridin-3-yl 4-methylpiperidine-1-carboxylate]
0.1 µM | CC1CCN(C(=O)Oc2nsc3ccccc23)CC1 [Example 5, Benzo[d]isothiazol-3-yl 4-methylpiperidine-1-carboxylate]

SMILES | IC50
CC1CCN(C(=O)Oc2noc3nc(Cl)ccc23)CC1 [Example 10, 6-Chloroisoxazolo[5,4-b]pyridin-3-yl 4-methylpiperidine-1-carboxylate] | 0.67 µM
Cc1ccc2c(OC(=O)N3CCC(C)CC3)noc2n1 [Example 11, 6-Methylisoxazolo[5,4-b]pyridin-3-yl 4-methylpiperidine-1-carboxylate] | 0.26 µM

molecular target: endothelial lipase (EL) (Homo sapiens (Human), UniProt Q9Y5X9); experiment: EL inhibition assay; type: biochemical; details: EL from conditioned medium of recombinant cell lines (CHO, HEK293); Bodipy phospholipid substrate
Sequence (Q9Y5X9 21-500, species assumed): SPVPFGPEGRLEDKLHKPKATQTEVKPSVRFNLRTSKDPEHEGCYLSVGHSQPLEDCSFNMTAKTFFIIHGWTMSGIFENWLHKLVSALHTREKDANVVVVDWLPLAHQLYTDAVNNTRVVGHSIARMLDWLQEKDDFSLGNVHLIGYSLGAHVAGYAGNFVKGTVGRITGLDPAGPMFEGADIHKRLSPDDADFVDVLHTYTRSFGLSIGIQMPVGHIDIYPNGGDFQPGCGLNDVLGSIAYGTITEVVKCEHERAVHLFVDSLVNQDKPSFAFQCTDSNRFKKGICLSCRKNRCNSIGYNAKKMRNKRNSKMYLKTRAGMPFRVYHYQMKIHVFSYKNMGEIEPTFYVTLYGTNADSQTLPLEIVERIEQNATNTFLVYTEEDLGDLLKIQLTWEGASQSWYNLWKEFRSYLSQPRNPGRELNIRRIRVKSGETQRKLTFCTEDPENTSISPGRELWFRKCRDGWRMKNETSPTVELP
Description: EL is released as secretory protein in high concentration into cell culture medium (conditioned medium) by recombinant cell lines (CHO, HEK293). This is employed as enzyme solution after concentration.
The phospholipase-specific substrate 1,2-bis(4,4-difluoro-5,7-dimethyl-4-bora-3a,4a-diaza-s-indacene-3-undecanoyl)-sn-glycero-3-phosphocholine, (manufacturer Molecular Probes) is used to characterize the enzymatic activity of endothelial lipase and the effect of inhibitors. Hydrolysis of the A1 ester linkage of this phospholipid by the enzyme liberates the fluorescent dye Bodipy which can be detected after separation by thin-layer chromatography on an HPTLC plate (silica gel 60, Merck) or directly in the reaction vessel by measuring the fluorescence.
The substrate solution is prepared by taking up 100 μg of 1,2-bis(4,4-difluoro-5,7-dimethyl-4-bora-3a,4a-diaza-s-indacene-3-undecanoyl)-sn-glycero-3-phospho-choline (manufacturer Molecular Probes), 2.4 mg of tripalmitin (Sigma) and 7.9 mg of DOP—choline (1,2-dioleoyi-sn-glycero-3-phosphocholine) in 393 μl of chloroform and then transferring 157 μl into a fresh reaction vessel. After evaporation of the solvent, the lipid mixture is dissolved in 4 ml of 200 mM TRIS-HCl, 150 mM sodium chloride, pH=7.4, by sonication twice. […] After evaporation of the eluent, the plate is read in a fluorescence scanner. […]

IC50 | SMILES
14.6 µM | Cc1ccccc1CNC(=O)Nc1nsc2ccc([N+](=O)[O-])cc12 [Example 7, 1-(2-Methylbenzyl)-3-(5-nitrobenzo[d]isothiazol-3-yl)urea]
14.6 µM | CCCCCCNC(=O)Nc1noc2ccccc12 [Example 8, 1-Benzo[d]isoxazol-3-yl-3-hexylurea]

— patent US8921404B2, “Azole derivatives in the form of lipase and phospholipase inhibitors” (Sanofi, priority 2005, dated 2014)
